# Data from PubChem BioAssay AID1918930 (Molecular Pharmacology Branch, DTP, NCI, 2023).
# Values joined by “and” are separate entries in the source; they are usually repeats but may differ in a detail not shown here. Identical values can stand only once.
# System: 233499-124-R-J3-PDC complex spheroid viability, % test/control
# Assay: Anticancer human tumor 233499-124-R-J3-PDC patient-derived colon adenocarcinoma cell line growth inhibition
# Settings: for viability, T/C: stronger effect = lower value
# Source text: Multicellular complex tumor spheroid response to LSD1 Inhibitor Iadademstat in combination with a variety of drugs and investigational agents in selected tumor cell lines
# The current study was undertaken to assess response to LSD1 inhibitors in combination with standard-of-care drugs and investigational agents in solid tumor complex spheroid models as well as in the K-562 leukemia. Complex spheroids include a stromal component modeled by human endothelial cells (HUVEC) and fibroblasts modeled by human mesenchymal stem cells (MSCs). The concentration ranges selected for each drug and investigational agent were based upon clinically achievable concentrations if the clinical Cmax of the agent was known.
# Compounds. The drugs and investigational agents used in this study are listed on Table 1. All of the agents used, including staurosporine (NSC755774) and gemcitabine (NSC613327), were obtained from the Developmental Therapeutics Program, NCI. FDA-approved anticancer drugs are available from the NCI at http://dtp.nci.nih.gov/branches/dscb/oncology_drugset_explanation.html. Drugs and investigational agents were >95% pure by proton nuclear magnetic resonance (NMR) and liquid chromatography/mass spectrometry (LC/MS). Stock solutions were prepared at 400x in DMSO, stored at -70 degrees C, and diluted in fresh medium prior to their use. The final concentration of DMSO in cell culture wells never exceeded 0.25% (v/v). The FDA-approved anticancer drug set is available from the Developmental Therapeutics Program at https://dtp.cancer.gov/organization/dscb/obtaining/available_plates.htm. All drugs and investigational agents were tested over a range starting from a high concentration at or near the clinical Cmax and decreasing in half-log increments. If the clinical Cmax for an agent had not been determined, the highest concentration tested was 10 microM.
# Cell Lines. The patient-derived cancer cell (PDC) lines: 292921-168-R-J2-PDC, K24384-001-R-PDC, and 521955-158-R2-J5-PDC pancreatic carcinomas, 556581-035-R-J1 ovarian carcinoma, 324938-238-R-J1-PDC, 855422-203-R-J1-PDC and 883617-216-R-J1-PDC urothelial bladder carcinomas, 743489-274-T-PDC renal cell carcinoma, 138582-R-J1 Merkel cell tumor, K60290-347-R-J1 and K57222-313-R-J1-PDC glioblastomas, 653999-131-R-J2-PDC, LG0703-F948-PDC, and 349418-098-R-PDC non-small cell lung carcinomas, 885512-296-R-J2-PDC, 171881-019-R-J1-PDC breast carcinomas and 186277-243-T-J2-PDC and 233499-124-R-J2-PDC colon carcinomas were obtained from the NCI Patient-Derived Models Repository (PDMR, https://pdmr.cancer.gov). The established cell lines NCI/ADR-RES (RRID:CVCL_14520 and OVCAR-5 (RRID:CVCL_1628) ovarian carcinomas, 786-O (RRID:CVCL_1051) and A498 (RRID:CVCL_A498) renal cell carcinoma, NCI-H211 (ATCC, cat. CRL-5824; RRID:CVCL_1529), NCI-H196 (ATCC, cat. CRL-5823, RRID:CVCL_1509), SW 1271 (ATCC, cat. CRL-2177, RRID:CVCL_1716) and NCI-H1876 (ATCC, cat. CRL-5902, RRID:CVCL_1503) small cell lung carcinomas, MDA-MB-231 (RRID:CVCL_0062) and MDA-MB-468 (RRID:CVCL_0419)breast carcinomas (10-12). Pooled donor human umbilical vein endothelial cells (HUVEC, Lonza, cat. CC-2519) and human mesenchymal stem cells (hMSC, Lonza, cat. PT-2501) were purchased from Lonza (Walkersville, MD).
# Cell Culture. All cells were maintained in an incubator at 37 degrees C and 5% CO2 with 95% humidity. The PDC lines were cultured according to standard operating procedures established by the NCI PDMR (https://pdmr.cancer.gov). Briefly all PDCs were thawed and cultured in Matrigel-coated flasks prepared with a working solution of 1X Ham's F-12 nutrient mix, without supplementation (Invitrogen, Waltham, MA, cat. 11765054), 100 U/mL penicillin-streptomycin (Invitrogen, cat. 15140122), and 2.5% Matrigel (Corning Inc., Corning, NY, cat. 354248) for the first three passages. […]
# [1] = curve of first compound, second compound 0.1 µM
# [2] = curve of first compound, second compound 0.316 µM
# [3] = curve of first compound, second compound 1 µM
# [4] = curve of first compound, second compound 3.16 µM
# [5] = curve of first compound, second compound 10 µM
# [6] = second compound 0.1 µM, first compound 0.00949 µM
# [7] = second compound 0.1 µM, first compound 0.03 µM
# [8] = second compound 0.1 µM, first compound 0.0949 µM
# [9] = second compound 0.1 µM, first compound 0.3 µM
# [10] = second compound 0.1 µM, first compound 0.949 µM
# [11] = second compound 0.1 µM, first compound 3 µM
# [12] = second compound 0.316 µM, first compound 0.00949 µM
# [13] = second compound 0.316 µM, first compound 0.03 µM
# [14] = second compound 0.316 µM, first compound 0.0949 µM
# [15] = second compound 0.316 µM, first compound 0.3 µM
# [16] = second compound 0.316 µM, first compound 0.949 µM
# [17] = second compound 0.316 µM, first compound 3 µM
# [18] = second compound 1 µM, first compound 0.00949 µM
# [19] = second compound 1 µM, first compound 0.03 µM
# [20] = second compound 1 µM, first compound 0.0949 µM
# [21] = second compound 1 µM, first compound 0.3 µM
# [22] = second compound 1 µM, first compound 0.949 µM
# [23] = second compound 1 µM, first compound 3 µM
# [24] = second compound 3.16 µM, first compound 0.00949 µM
# [25] = second compound 3.16 µM, first compound 0.03 µM
# [26] = second compound 3.16 µM, first compound 0.0949 µM
# [27] = second compound 3.16 µM, first compound 0.3 µM
# [28] = second compound 3.16 µM, first compound 0.949 µM
# [29] = second compound 3.16 µM, first compound 3 µM
# [30] = second compound 10 µM, first compound 0.00949 µM
# [31] = second compound 10 µM, first compound 0.03 µM
# [32] = second compound 10 µM, first compound 0.0949 µM
# [33] = second compound 10 µM, first compound 0.3 µM
# [34] = second compound 10 µM, first compound 0.949 µM
# [35] = second compound 10 µM, first compound 3 µM
# 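Note: spheroids exposed to agents for one week before readout.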
structure (smiles),measurement,setting,value
COc1cc(C2c3cc4c(cc3C(OC3OC5COC(C)OC5C(O)C3O)C3COC(=O)C23)OCO4)cc(OC)c1O (stereo not given) + NC1CCC(NC2CC2c2ccccc2)CC1,IC50,[1],> 3000 nM
same,IC50,[2],> 3000 nM
same,IC50,[3],> 3000 nM
same,IC50,[4],> 3000 nM
same,IC50,[5],1290 nM
same,"viability, T/C",[6],96.6%
same,"viability, T/C",[7],102%
same,"viability, T/C",[8],80.8%
same,"viability, T/C",[9],88.8%
same,"viability, T/C",[10],81%
same,"viability, T/C",[11],75.5%
same,"viability, T/C",[12],119%
same,"viability, T/C",[13],115%
same,"viability, T/C",[14],89%
same,"viability, T/C",[15],95%
same,"viability, T/C",[16],89.9%
same,"viability, T/C",[17],73.4%
same,"viability, T/C",[18],97.1%
same,"viability, T/C",[19],81.3%
same,"viability, T/C",[20],80.1%
same,"viability, T/C",[21],77.3%
same,"viability, T/C",[22],65.7%
same,"viability, T/C",[23],92.2%
same,"viability, T/C",[24],91.5%
same,"viability, T/C",[25],83.7%
same,"viability, T/C",[26],81.4%
same,"viability, T/C",[27],65.9%
same,"viability, T/C",[28],82%
same,"viability, T/C",[29],57.6%
same,"viability, T/C",[30],97.1%
same,"viability, T/C",[31],77.6%
same,"viability, T/C",[32],74.7%
same,"viability, T/C",[33],60.5%
same,"viability, T/C",[34],63.7%
same,"viability, T/C",[35],36.4%
Nc1ncn(C2CC(O)C(CO)O2)c(=O)n1 (stereo not given),"viability, T/C",compound 0.00316 µM,81% and 90.1%
same,"viability, T/C",compound 0.01 µM,88.7% and 101%
same,"viability, T/C",compound 0.0316 µM,83.8% and 87.1%
same,"viability, T/C",compound 0.1 µM,89.8% and 79.8%
same,"viability, T/C",compound 0.316 µM,106% and 94.6%
same,"viability, T/C",compound 1 µM,104% and 77.4%
same,IC50,curve of compound,> 1000 nM
O=C(C=Cc1cccc(S(=O)(=O)Nc2ccccc2)c1)NO,"viability, T/C",compound 0.00949 µM,93.1% and 104%
same,"viability, T/C",compound 0.03 µM,116% and 98.3%
same,"viability, T/C",compound 0.0949 µM,128% and 104%
same,"viability, T/C",compound 0.3 µM,141% and 98.9%
same,"viability, T/C",compound 0.949 µM,26.7% and 9.27%
same,"viability, T/C",compound 3 µM,96.4% and 90.1%
same,IC50,curve of compound,3000 nM and > 3000 nM
Nc1ccccc1NC(=O)c1ccc(CNC(=O)OCc2cccnc2)cc1 + NC1CC1c1ccc(-c2cccc(O)c2)cc1,IC50,[1],453 nM
same,IC50,[2],374 nM
same,IC50,[3],246 nM
same,IC50,[4],387 nM
same,IC50,[5],338 nM
same,"viability, T/C",[6],80.8%
same,"viability, T/C",[7],106%
same,"viability, T/C",[8],100%
same,"viability, T/C",[9],71.4%
same,"viability, T/C",[10],11.4%
same,"viability, T/C",[11],3.1%
same,"viability, T/C",[12],101%
same,"viability, T/C",[13],106%
same,"viability, T/C",[14],93.1%
same,"viability, T/C",[15],59.9%
same,"viability, T/C",[16],11.3%
same,"viability, T/C",[17],1.9%
same,"viability, T/C",[18],101%
same,"viability, T/C",[19],98.8%
same,"viability, T/C",[20],75%
same,"viability, T/C",[21],47.7%
same,"viability, T/C",[22],9.92%
same,"viability, T/C",[23],2.32%
same,"viability, T/C",[24],84.4%
same,"viability, T/C",[25],76.1%
same,"viability, T/C",[26],79.8%
same,"viability, T/C",[27],60.5%
same,"viability, T/C",[28],12.9%
same,"viability, T/C",[29],2.93%
same,"viability, T/C",[30],71.4%
same,"viability, T/C",[31],79.6%
same,"viability, T/C",[32],78.2%
same,"viability, T/C",[33],54.6%
same,"viability, T/C",[34],8.25%
same,"viability, T/C",[35],1.7%
CC(C)c1c(-c2ccccc2)nc2c(C#N)c[nH]n2c1=O + NC1CC1c1ccc(-c2cccc(O)c2)cc1,IC50,[1],> 10000 nM
same,IC50,[2],> 10000 nM
same,IC50,[3],> 10000 nM
same,IC50,[4],> 10000 nM
same,IC50,[5],> 10000 nM
same,"viability, T/C","second compound 0.1 µM, first compound 0.0316 µM",108%
same,"viability, T/C","second compound 0.1 µM, first compound 0.1 µM",117%
same,"viability, T/C","second compound 0.1 µM, first compound 0.316 µM",110%
same,"viability, T/C","second compound 0.1 µM, first compound 1 µM",100%
same,"viability, T/C","second compound 0.1 µM, first compound 3.16 µM",108%
same,"viability, T/C","second compound 0.1 µM, first compound 10 µM",104%
same,"viability, T/C","second compound 0.316 µM, first compound 0.0316 µM",100%
same,"viability, T/C","second compound 0.316 µM, first compound 0.1 µM",110%
same,"viability, T/C","second compound 0.316 µM, first compound 0.316 µM",109%
same,"viability, T/C","second compound 0.316 µM, first compound 1 µM",118%
same,"viability, T/C","second compound 0.316 µM, first compound 3.16 µM",117%
same,"viability, T/C","second compound 0.316 µM, first compound 10 µM",110%
same,"viability, T/C","second compound 1 µM, first compound 0.0316 µM",86.8%
same,"viability, T/C","second compound 1 µM, first compound 0.1 µM",93.6%
same,"viability, T/C","second compound 1 µM, first compound 0.316 µM",95.1%
same,"viability, T/C","second compound 1 µM, first compound 1 µM",92.8%
same,"viability, T/C","second compound 1 µM, first compound 3.16 µM",105%
same,"viability, T/C","second compound 1 µM, first compound 10 µM",116%
same,"viability, T/C","second compound 3.16 µM, first compound 0.0316 µM",87.6%
same,"viability, T/C","second compound 3.16 µM, first compound 0.1 µM",93.5%
same,"viability, T/C","second compound 3.16 µM, first compound 0.316 µM",97.3%
same,"viability, T/C","second compound 3.16 µM, first compound 1 µM",98.9%
same,"viability, T/C","second compound 3.16 µM, first compound 3.16 µM",114%
same,"viability, T/C","second compound 3.16 µM, first compound 10 µM",109%
same,"viability, T/C","second compound 10 µM, first compound 0.0316 µM",76.1%
same,"viability, T/C","second compound 10 µM, first compound 0.1 µM",78%
same,"viability, T/C","second compound 10 µM, first compound 0.316 µM",93.3%
same,"viability, T/C","second compound 10 µM, first compound 1 µM",101%
same,"viability, T/C","second compound 10 µM, first compound 3.16 µM",109%
same,"viability, T/C","second compound 10 µM, first compound 10 µM",114%
NC1CCC(NC2CC2c2ccccc2)CC1 (stereo not given),IC50,"compound alone, run of 01/24/2022",> 10000 nM
